Laboratory results reported in patent publication US11330820B2, “Pesticidally active mixtures” (BASF Agrochemical Products B.V., priority 2016, dated 2022).
Values joined by “and” are separate entries in the source; they are usually repeats but may differ in a detail not shown here. Equal values may be shown once.

Experiments:
Type in all cases: in vivo
[1] = system: tobacco budworm (Heliothis virescens); test: Control of tobacco budworm, insect diet with eggs (B.4)
Description: For evaluating control of tobacco budworm (Heliothis virescens) the test unit consisted of 96-well-microtiter plates containing an insect diet and 15-25 H. virescens eggs.
The compounds or mixtures were formulated using a solution containing 75% by weight water and 25% by weight DMSO. Different concentrations of formulated compounds or mixtures were sprayed onto the insect diet at 10 μl, using a custom built micro atomizer, at two replications.
(§1) For experimental mixtures in these tests identical volumes of both mixing partners at the desired concentrations respectively, were mixed together.
After application, microtiter plates were incubated at 28+1° C., 80+5% RH for 5 days. Egg and larval mortality was then visually assessed.

[2] = system: green peach aphid (Myzus persicae); test: Control of green peach aphid through systemic means, artificial diet under membrane (B.2)
Excerpt: For evaluating control of green peach aphid (Myzus persicae) through systemic means the test unit consisted of 96-well-microtiter plates containing liquid artificial diet under an artificial membrane.
The compounds or mixtures were formulated using a solution containing 75% by weight water and 25% by weight DMSO. Different concentrations of formulated compounds or mixtures were pipetted into the aphid diet, using a custom built pipetter, at two replications.
For experimental mixtures in these tests identical volumes of both mixing partners at the desired concentrations respectively were mixed together.
After application, 5-8 adult aphids were placed on the artificial membrane inside the microtiter plate wells. The aphids were then allowed to suck on the treated aphid diet and incubated at 23±1° C., 50±5% RH for 3 days. Aphid mortality and fecundity was then visually assessed.

[3] = system: boll weevil (Anthonomus grandis); test: Control of boll weevil, insect diet with eggs (B.3)
Description: For evaluating control of boll weevil (Anthonomus grandis) the test unit consisted of 24-well-microtiter plates containing an insect diet and 20-30 A. grandis eggs.
(§2) The compounds or mixtures were formulated using a solution containing 75% by weight water and 25% by weight DMSO. Different concentrations of formulated compounds or mixtures were sprayed onto the insect diet at 20 μl, using a custom built micro atomizer, at two replications. For experimental mixtures in these tests identical volumes of both mixing partners at the desired concentrations respectively, were mixed together.
After application, microtiter plates were incubated at 23±1° C., 50±5% RH for 5 days. Egg and larval mortality was then visually assessed.

[4] = system: vetch aphid (Megoura viciae); test: Control of vetch aphid on broad bean leaf disks, contact or systemic (B.1)
Description: For evaluating control of vetch aphid (Megoura viciae) through contact or systemic means the test unit consisted of 24-well-microtiter plates containing broad bean leaf disks. The compounds or mixtures were formulated using a solution containing 75% by weight water and 25% by weight DMSO. Different concentrations of formulated compounds or mixtures were sprayed onto the leaf disks at 2.5 μl, using a custom built micro atomizer, at two replications.
as §1
After application, the leaf disks were air-dried and 5-8 adult aphids placed on the leaf disks inside the microtiter plate wells. The aphids were then allowed to suck on the treated leaf disks and incubated at 23+1° C., 50+5% RH for 5 days. Aphid mortality and fecundity was then visually assessed.

[5] = system: Greenhouse Whitefly (Trialeurodes vaporariorum); test: Control of greenhouse whitefly, egg plant leaf disk with white fly eggs (B.5)
Description: as §2, with “For evaluating control of Greenhouse Whitefly (Trialeurodes vaporariorum) the test unit consisted of 96-well-microtiter plates containing a leaf disk of egg plant leaf disk with white fly eggs. The” for “The”, “2.5” for “20”
After application, microtiter plates were incubated at 23±1° C., 65±5% RH for 6 days. Mortality of hatched crawlers was then visually assessed.

[6] = 0.8 ppm, aphid mortality and fecundity after 5 days

In the case of CCN1OC[C@@H](NC(=O)c2ccc(C3=NOC(c4cc(Cl)cc(Cl)c4)(C(F)(F)F)C3)cc2C)C1=O (stereo partly drawn) [II.4-1, 4-[5-(3,5-dichlorophenyl)-5-(trifluoromethyl)-4H-isoxazol-3-yl]-N-[(4R)-2-ethyl-3-oxo-isoxazolidin-4-yl]-2-methyl-benzamide], the “Average Control %” value ([1]; 0.08 ppm, egg and larval mortality after 5 days) is reported as 0% and the “Average Control %” value ([2]; 2 ppm, aphid mortality and fecundity after 3 days) is reported as 0%.
CN(C(=O)c1ccccc1)c1cccc(C(=O)Nc2c(Br)cc(C(F)(C(F)(F)F)C(F)(F)F)cc2C(F)(F)F)c1F [compound a), broflanilide] was tested, and the “Average Control %” value ([3]; 0.08 ppm, after 5 days) was 25%, the “Average Control %” value ([4]; 0.08 ppm, after 5 days) was 0% and the “Average Control %” value [4, 6] was 50% and 25%. The “Average Control %” value ([5]; 0 + 0.4 ppm, after 6 days) was 0%, the “Average Control %” value ([1]; 0.8 ppm, after 5 days) was 0% and the “Average Control %” value ([2]; 0.08 ppm, after 3 days) was 0%. The “Average Control %” value ([2]; 0.8 ppm, after 3 days) was 25%.
For CCS(=O)(=O)c1cccnc1-c1nc2cc(C(F)(F)F)cnc2n1C [II.3-1, 2-(3-ethylsulfonyl-2-pyridyl)-3-methyl-6-(trifluoromethyl)imidazo[4,5-b]pyridine], the “Average Control %” value ([3]; 50 ppm, egg and larval mortality after 5 days) was 25%, the “Average Control %” value ([4]; 10 ppm, after 5 days) was 50% and the “Average Control %” value ([5]; 2 + 0 ppm, mortality of hatched crawlers after 6 days) was 25%. For the same compound, the “Average Control %” value ([2]; 10 ppm, after 3 days) was 37.5%.
With Cn1nc(C(F)(F)C(F)(F)F)c(C(F)(F)F)c1C(=O)Nc1ccc(Cl)c(C(=O)NCc2ccccc2)c1 [II.1, N-[4-Chloro-3-[[(phenylmethyl)amino]carbonyl]phenyl]-1-methyl-3-(1,1,2,2,2-pentafluoroethyl)-4-(trifluoromethyl)-1H-pyrazole-5-carboxamide] the “Average Control %” value [4, 6] was 0%.
